According to US8247533B2, “Beta helical peptide structures stable in aqueous and non-aqueous media” (The United States of America, as represented by the …, priority 2007, dated 2012):
≈ marks a conversion by molar mass, not a printed value. Peptide text beside a SMILES is read from it.

Tests used:
[1] = Circular dichroism (CD) thermal denaturation study; type: physicochemical
Description: (§1) The water solubility of these peptides/peptidometrics is defined by the correct choice of sidechain functionalities.

physchem = conditions: aqueous medium
Description: as §1

[2] = Solubility in organic solvents (purification work); type: physicochemical
Description: However, dissolution of the crude peptide in HFIP at a concentration of about 80 mg mL^−1, followed by twofold dilution with HFA.3H2O, furnished a solution that was suitable for use in RP-HPLC.
The next attempt to repurify fraction a of the RP-HPLC purified material using gravity-driven GPC on Sephadex LH-20. These efforts were complicated by the lack of a suitable pure solvent that would satisfy the following criteria: (1) the solvent must be able to dissolve the partially purified peptide, and (2) the solvent must be sufficiently polar to prevent irreversible adsorption of the peptide to the LH-20 stationary phase. One choice was CHCl3, in which the peptide is soluble to about. 20 mM; CHCl3, however, is a nonpolar solvent. Moreover, CHCl3 is denser than LH-20 and therefore inconvenient for GPC using gravity-driven flow. However, the solvent mixture CHCl3/MeOH (65:35) satisfies both of the criteria stated above; in addition, this mixture is less dense than LH-20. A single pass of fraction a through a 2.5×55 cm column of LH-20 in CHCl3/MeOH gave material that was ≧95% pure as estimated by 1D ^1H NMR (FIG. 9c). Furthermore, even fraction b of the RP-HPLC-purified material, which contained about 30% contaminant (FIG. 9b), could be purified in this manner. […]

solubility ([2]; CHCl3, partially purified peptide) [mM] | solubility in solvents typically used for RP-HPLC ([2]; crude peptide, MeOH, EtOH, i-PrOH, and CH3CN) | SMILES | change of beta-hairpin structure (CD) with temperature ([1]; aqueous state, 100 mM phosphate buffered saline buffer, about 5° C. to about 95° C.) | temperature up to which helical structure resists thermal denaturation (CD) ([1]; in methanol and trifluoroethanol) | solubility (physchem) [mM]
– | – | CC(C)C[C@H]1NC(=O)CNC(=O)[C@@H]2CCCN2C(=O)[C@@H](C)NC(=O)[C@H]([C@@H](C)O)NC(=O)[C@@H](CC(C)C)NC(=O)[C@H]([C@@H](C)O)NC(=O)[C@@H](C(C)C)NC(=O)[C@H](CCCCN)NC(=O)[C@@H](CC(C)C)NC(=O)[C@H](CCC(=O)O)NC(=O)[C@@H](C)NC(=O)CNC(=O)[C@@H]2CCCN2C(=O)[C@@H](C(C)C)NC(=O)[C@H]([C@@H](C)O)NC(=O)[C@@H](C)NC(=O)[C@H]([C@@H](C)O)NC(=O)[C@@H](CC(C)C)NC(=O)[C@H](CCCNC(=N)N)NC(=O)[C@@H](C(C)C)NC(=O)[C@H](CCC(=O)O)NC1=O [Peptide 1] (HELM PEPTIDE1{[dL].E.[dV].R.[dL].T.[dA].T.[dV].P.G.[dA].E.[dL].K.[dV].T.[dL].T.[dA].P.G}$PEPTIDE1,PEPTIDE1,1:R1-22:R2$$$V2.0) | does not change | up to 85 °C | > 10
~20 (≈ 41.9 mg/mL) | insoluble | CC(C)[C@@H]1NC(=O)CNC(=O)[C@H]2CCCN2C(=O)[C@H](C(C)C)NC(=O)[C@@H](C(C)C)NC(=O)[C@H](C(C)C)NC(=O)[C@@H](C(C)C)NC(=O)[C@H](C(C)C)NC(=O)[C@@H](C(C)C)NC(=O)[C@H](C(C)C)NC(=O)[C@@H](C(C)C)NC(=O)[C@H](C(C)C)NC(=O)CNC(=O)[C@H]2CCCN2C(=O)[C@H](C(C)C)NC(=O)[C@@H](C(C)C)NC(=O)[C@H](C(C)C)NC(=O)[C@@H](C(C)C)NC(=O)[C@H](C(C)C)NC(=O)[C@@H](C(C)C)NC(=O)[C@H](C(C)C)NC(=O)[C@@H](C(C)C)NC1=O [Peptide 3, cyclo{[(L-Val-D-Val)4-(L-Val-D-Pro-Gly)]2-}] (HELM PEPTIDE1{V.[dP].G.V.[dV].V.[dV].V.[dV].V.[dV].V.[dP].G.V.[dV].V.[dV].V.[dV].V.[dV]}$PEPTIDE1,PEPTIDE1,1:R1-22:R2$$$V2.0) | – | – | –
